Results taken from patent publication US8269017B2, “Compounds for the treatment of proliferative disorders” (Synta Pharmaceuticals Corporation, priority 2005, dated 2012).
“Also recorded” adds a separate entry of the source. Where two headings read alike, the source gives them in different places.

Assays:
[1] = Body weight change in EMT6 tumor growth study; format: in vivo, nude mouse
Procedure: Seven to eight week old, female Crl:CD-1-nuBR (nude) mice were obtained from Charles River Laboratories (Wilmington, Mass., USA). Animals were housed 4-5/cage in micro-isolators, with a 12 hr/12 hr light/dark cycle, acclimated for at least 1 week prior to use and fed normal laboratory chow ad libitum. Studies were conducted on animals between 8 and 10 weeks of age at implantation. To implant EMT6 tumor cells into nude mice, the cells were trypsinized as above, washed in PBS and resusupended at a concentration of 10×10^6 cells/mL in PBS. Using a 27 gauge needle and 1 cc syringe, 0.1 mL of the cell suspension was injected subcutaneously into the flank of each nude mouse. Tumor-bearing animals were given single intravenous (i.v.) bolus injections of either vehicle or Compound 174 at 10 mL per kg body weight. To measure the effect of the drug treatment on tumor growth rates, tumor volumes were measured 3 days after dosing (FIG. 22).

[2] = system: MES-SA/DX5 (uterine sarcoma, MDR-1); test: cells; format: cell-based; conditions: Homo sapiens, MDR1, 72 h, MES/DX5 (MDR-1), MTS assay
Procedure: (§1) The in vitro cytotoxicity of the compounds of the invention was determined in the following human cell lines: HL-60 (T-cell leukemia), MDA-435 and MCF-7 (human breast carcinoma), NCI-H460 and H29 (colon carcinoma), DU145 (prostate carcinoma), and MES-SA and MES-SA/DX5 (uterine sarcoma). MES-SA is a model of uterine sarcoma, and the cell are sensitive to a number of chemotherapeutic agents including doxorubicin, dactinomycin, mitomycin C, taxol and bleomycin, but resistant to vinblastine and cisplatin. MES-SA/Dx5 was established in the presence of increasing concentrations of doxorubicin. […] All cells were purchased from ATCC.
(§2) The cell lines were maintained in RPMI1640 (GIBCO) supplemented with 10% FCS, 100 units/mL penicillin, 100 ug/ml streptomycin, and 2 mM L-glutamine. Cells were split every third day and diluted to a concentration of 2×10^5 cells/mL one day before the experiment was performed. All experiments were performed on exponentially growing cell cultures. Cell densities were 2.5×10^4 cells/mL in all experiments.
(§3) Compounds of the invention were prepared by dissolving the compound at a concentration of 10 mM in 100% DMSO. Final concentrations 10, 1, 0.1, 0.01 and 0.001 μM were obtained by diluting the stock solution directly into the tissue culture medium.

[3] = system: human tumor cell line MDA-MB-435S; test: Nude mouse xenograft, MDA-MB-435S (Example 10); format: in vivo; conditions: Compound 169 at 2 mg/kg, Compound 174 at 4.55 mg/kg body weight, i.v., 1 time/week, 3 doses
Procedure: (§4) Seven to eight week old, female Crl:CD-1-nuBR (nude) mice were obtained from Charles River Laboratories (Wilmington, Mass., USA). Animals were housed 4-5/cage in micro-isolators, with a 12 hr/12 hr light/dark cycle, acclimated for at least 1 week prior to use and fed normal laboratory chow ad libitum. Studies were conducted on animals between 8 and 10 weeks of age at implantation. To implant MDA-MB-4355 tumor cells into nude mice, the cells were trypsinized as above, washed in PBS and resusupended at a concentration of 50×10(6) cells/ml in PBS. Using a 27 gauge needle and 1 cc syringe, 0.1 ml of the cell suspension was injected into the corpus adiposum of nude mice. The corpus adiposum is a fat body located in the ventral abdominal vicera in the right quadrant of the abdomen at the juncture of the os coxae (pelvic bone) and the os femoris (femur).
Tumors were then permitted to develop in vivo until the majority reached an average of 100-200 mm^3 in tumor volume, which typically required 2-3 weeks following implantation. […] Tumor volumes (V) were calculated by caliper measurement of the width (W), length (L) and thickness (T) of tumors using the following formula: V=0.5236×(L×W×T). Animals were randomized into treatment groups so that the median tumor volumes of each group were similar at the start of dosing. % T/C values, as a measure of efficacy, were determined as follows: • (i) If ΔT>0: % T/C=[…] • (ii) If ΔT<0: % T/C=(ΔT/T0)×100 • (iii) ΔT=Change in median tumor volume between start of dosing and the end of study. • (iv) ΔC=Change in median tumor volume between start of dosing and the end of study. • (v) T0=Median tumor volume at start of dosing.
(§5) Compounds were formulated in either D5W (Compounds 169 and 174) or DRD (Compound 178). For formulations in D5W, solutions of test articles were prepared by dissolving the appropriate amounts of each compound in 5% dextrose in water (Abbott Laboratories, North Chicago, Ill., USA) by sonication in an ultrasonic water bath. For formulations in DRD, stock solutions of test articles were prepared by dissolving the appropriate amounts of each compound in dimethyl sulfoxide (DMSO) by sonication in an ultrasonic water bath. Stock solutions were prepared weekly, stored at −20° C. and diluted fresh each day for dosing. A solution of 20% Cremophore RH40 (polyoxyl 40 hydrogenated castor oil; BASF Corp., Aktiengesellschaft, Ludwigshafen, Germany) in 5% dextrose in water (Abbott Laboratories, North Chicago, Ill., USA) was also prepared by first heating 100% Cremophore RH40 at 50-60° C. until liquefied and clear, diluting 1:5 with 100% D5W, reheating again until clear and then mixing well. This solution was stored at room temperature for up to 3 months prior to use. […]

[4] = system: MES-SA (uterine sarcoma); test: In vitro cytotoxicity, MTS assay, MES-SA; format: cell-based, human; conditions: Homo sapiens, MES-SA (Uterine Carcinoma)
Procedure: as §1, §2, §3

[5] = system: HL-60 (T-cell leukemia); test: In vitro cytotoxicity, MTS assay, HL-60; format: cell-based, human; conditions: Homo sapiens
Procedure: as §1, §2, §3

[6] = Body weight change in MDA-MB-435S xenograft study (Example 10); format: in vivo, nude mouse; conditions: Compound 169 at 2 and 1 mg/kg, Compound 174 at 4.55 and 2.28 mg/kg body weight, i.v., 1 time per week, 3 doses; Hydrochloride
Procedure: as §4
as §5, with “use. To prepare DRD formulations for daily dosing, DMSO stock solutions were diluted 1:10 with 20% Cremophore RH40.” for “use.”

[7] = system: Africa green monkey kidney fibroblasts (CV1 cells); test: Microtubule depolymerization in CV-1 cells (anti-tubulin immunofluorescence); format: cell-based; conditions: 24 hr
Procedure: (§6) Depolymerizing microtubules not only kills dividing tumor cells but also induces disruption of newly generated blood vessels in tumor. The potency of Compound 249 in depolymerizing microtubules was examined in Africa green monkey kidney fibroblasts (CV1 cells) and primary human umbilical vein endothelium cells (HUVEC cells). The cells were treated with drugs (1, 10, 100, and 1000 nM for CV-1 and 1, 5, 10, 50, 100 nM for HUVEC) for 24 hr and fixed with 3% paraformaldehyde followed by cold methanol treatment to preserve both microtubule structures and depolymerized tubulin in the cytoplasm. The cells were stained with anti-tubulin antibody and subsequently fluorescent conjugated secondary antibody to visualize microtubule networks or cytoplasmic tubulin with fluorescent microscopy. As shown in FIG. 20 and FIG. 21, Compound 249 completely depolymerizes MT in a considerable proportion of CV1 cells at 10 nM and HUVEC cells at 1 nM (about 10% for both cell lines; data not shown). At 100 nM for CV1 and 5 nM for HUVEC cells, microtubules were completely depolymerized in nearly 100% cells. Tubulin staining in these cells was shown as cytoplasmic location and no microtubule structures were found in those cells. […] Compound 249 is a potent microtubule depolymerizing drug and HUVEC cells are extremely sensitive to Compound 249's anti-microtubule effect.

[8] = system: primary human umbilical vein endothelium cells (HUVEC cells); test: Microtubule depolymerization in HUVEC cells (anti-tubulin immunofluorescence); format: cell-based; conditions: 24 hr
Procedure: as §6

[9] = system: human tumor cell line MDA-MB-435S; test: Nude mouse xenograft, MDA-MB-435S (Example 9); format: in vivo; conditions: i.v., 3 times per week
Procedure: FBS was obtained from ATCC and all other reagents were obtained from Invitrogen Corp. (Carlsbad, Calif., USA). […] To inactivate the trypsin, 5 mL of growth media was added and then the contents of the flask were centrifuged to pellet the cells. The supernatant was aspirated and the cell pellet was resuspended in 10 mL of growth media and the cell number determined using a hemocytometer.
Animals were housed 4-5/cage in micro-isolators, with a 12 hr/12 hr light/dark cycle, acclimated for at least 1 week prior to use and fed normal laboratory chow ad libitum.

Structure (SMILES)	largest average percent change in body weight ([1]; 4.55 mg/kg body weight single i.v., one day after dosing)	body weight lost by any individual animal ([1]; any point over the course of the study)	IC50 [2]	% T/C [3]	IC50 ([4]; 72 hours, read-out: IC50)	IC50 ([5]; HL-60, HL60 (Leukemia), 72 hours, read-out: IC50)	overt toxicity (effect on body weights) [6]	IC50 ([4]; MES-SA, 72 h)	IC50 ([5]; HL-60, 72 h, HL60 (Leukemia))	proportion of cells with completely depolymerized microtubules ([7]; 10 nM)	proportion of cells with completely depolymerized microtubules ([7]; 100 nM)	microtubule structure ([8]; 1 nM)	proportion of cells with completely depolymerized microtubules ([8]; 1 nM)	proportion of cells with completely depolymerized microtubules ([8]; 5 nM)	tumor regression ([9]; paclitaxel at 7.5 mg/kg body weight, 10 doses)	tumor growth compared to vehicle ([9]; paclitaxel at 7.5 mg/kg)
COc1ccc(-c2cnoc2-c2cc(OC)c(OC)c(OC)c2)cc1NC(=O)C(N)Cc1ccccc1.Cl (centres unmarked) [Compound 174, 2-amino-N-(2-methoxy-5-(5-(3,4,5-trimethoxyphenyl)isoxazol-4-yl)phenyl)-3-phenylpropanamide Hydrochloride]	−7.3%	≤ 11%	0.1 nM	25%	0.1 nM	2 nM	not overtly toxic; also recorded: not associated with overt toxicity									
COc1ccc(-c2cnoc2-c2cc(OC)c(OC)c(OC)c2)cc1N [Compound 249, 2-methoxy-5-(5-(3,4,5-trimethoxyphenyl)isoxazol-4-yl)aniline]			1 nM					1 nM	1 nM	about 10%	~100%	Fragmented microtubules were found	about 10%	~100%		
CC(=O)O[C@H]1C(=O)[C@@]2(C)[C@H]([C@H](OC(=O)c3ccccc3)[C@]3(O)C[C@H](OC(=O)[C@H](O)[C@@H](NC(=O)c4ccccc4)c4ccccc4)C(C)=C1C3(C)C)[C@]1(OC(C)=O)CO[C@@H]1C[C@@H]2O [paclitaxel, Paclitaxel]															did not	decreased tumor growth
